Results from paper PMC11373361, “Expanding the inhibitor space of the WWP1 and WWP2 HECT E3 ligases” (Journal of Enzyme Inhibition and Medicinal Chemistry, 2024).
Where “and” joins values, the source holds several entries; their conditions need not be identical. Equal entries are not always repeated. Blank lines part the entries; values can stand above or below the compound they belong to.

How the values were obtained:
Assay type in all cases: biochemical
[1] = target: T1, WWP2-FL (Homo sapiens, UniProt O00308); experiment: WWP2 ELISA autoubiquitination assay; conditions: for relative activity, single-shot autoubiquitination: 1 mM compound, hit threshold less than 50% relative activity; for relative autoubiquitination activity, single-shot: 500 µM compound, normalised to 0% and 100% controls
T1 construct: full-length WWP2 (WWP2-FL); made in house; host or cells: E. coli BL21-CodonPlus RP (plasmid pGEX2T-WWP2-FL, Dr Andrew Chantry's Lab)
Method: (§1) Cell lysate containing His-tagged WWP1-L34H or GST-tagged WWP2-FL proteins were incubated on either 96-well Clear Pierce glutathione or nickel-coated plates for 1 h in PBS. Reaction mixtures of either 3 ng/well GST-Uba1 and 15 ng/well UbcH7 or 10 ng/well His-Uba1 and 150 ng/well His-UbcH7 were incubated together in 25 mM Tris pH 8.0, 100 mM NaCl, 4 mM MgCl2 containing 60 ng/well FLAG-ubiquitin and 1.25 mM ATP for 40 min. A prior 1% BSA plate blocking step is required for nickel-coated plates. After plate washing, 2 μL of the compound was added at the desired concentration (0.1 – 1% DMSO) followed by 18 μL of the reaction mixture. This was then incubated for 2 h with 0% and 100% controls before 100 μL of anti-FLAG M2-Peroxidase HRP (1: 10,000 PBST) was added to each well and incubated for 1 h. Finally, 100 μL of 1 × TMB substrate solution (Invitrogen) was added to each well and incubated for up to 10 min until sufficient blue colour change was observed. To stop the reaction, 100 μL of 1 M HCl was added. GST-tagged Uba1 counter-assay followed a similar protocol first incubating cell lysate for 1 h before adding 20 µL of reaction mixture containing 60 ng/well FLAG-ubiquitin, 1.25 mM ATP, and 1 mM compound at 1% DMSO. His-tagged UbcH7 counter-assays preincubated 3 ng/well GST-Uba1 and 200 ng/well UbcH7 with the reaction mixture components (60 ng/well FLAG-ubiquitin, 1.25 mM ATP, and 1 mM compound at 1% DMSO) for 1 h before incubating onto nickel-coated plates for a further 1 h. All other steps were followed. The plates were washed three times with PBST (and 15 mM Imidazole) between each step. Quantification was measured by absorbance read at 450 nm, standardised to the 0% and 100% activity controls. A visual representation of the assay steps is shown in SI Figure S13. All assay optimisations have been previously reported by Watt and colleagues. IC50 non-linear regression curves were calculated in GraphPad v10.2 (Prism).
(§2) The DSF hit compounds were initially screened using a single-shot WWP1 and WWP2 ELISA autoubiquitination assay at 500 µM compound (1% DMSO), measuring inhibition against their relative autoubiquitination activity following protocols previously described. […] Four NSC compounds for WWP1 (13151, 73735, 85433 & 637578) and three NSC compounds for WWP2 (26112, 57103 & 217913) were initially selected having a threshold of less than 50% relative activity when compared to 0% and 100% controls (Figure 2).
(§3) The resulting synthesised analogues were screened using the single-shot ELISA autoubiquitination assay at 1 mM compound concentration (1% DMSO) before IC50 values were calculated for hit compounds (SI Figure 2–4).
ELISA Autoubiquitination Assay
Figure S13. Schematic diagram of the WWP2 ELISA autoubiquitination assay. (1a) Immobilisation of GST-Tagged WWP2 on glutathione coated plates. The GST-tagged (green) WWP2-FL (orange) is bound to glutathione (black), further linked via an SSMPB linker (pink) bound to haemoglobin (red). (1b) Reaction mixture of His-E1, His-E2 and flag-tagged Ub. Flag-tagged (red) Ub (dark pink) is first charged to Uba1/E1 (light pink) using ATP (blue) and then transferred to UbcH7/E2 (light brown).
(2) Ub charged E2 incubation with immobilised WWP2. UbcH7/E2 transfers flag-tagged Ub to WWP2 before WWP2 auto-ubiquitination occurs in the absence or presence of compounds (blue). (3) Incubation of recombinant HRP anti-flag antibody with auto-ubiquitinated WWP2. Anti-flag antibody (purple) containing recombinant HRP (orange) associates with the flag-tagged Ub. (4) HRP-mediated oxidation of TMB.
Single-electron oxidation of TMB by HRP in the presence of HO creates first a blue colour change, before acidification results in a yellow colour change (450 nm) stopping

[2] = target: T2, UbcH7 (Homo sapiens, UniProt P68036); experiment: UbcH7 counter autoubiquitination assay; conditions: 1 mM compound, 1% DMSO; in Table S6 73735 and 217913 synthesised
T2 construct: made in house; host or cells: E. coli BL21-CodonPlus RP (plasmid pET3a-UbcH7 His, gifted by Professor Martin Scheffner)
Method: as §1
These preliminary hit compounds were further screened in dose-dependent ELISA autoubiquitination assays from 500 µM − 5 nM, with three NSC compounds for WWP1 (13151, 73735 & 85433) and only two NSC compounds for WWP2 (57103 & 217913) showing a dose-response (SI Table S4). […] To ensure the intended target was being inhibited and not the […] Uba1 (E1) and UbcH7 (E2) enzymes used in the catalytic cascade of the assay, a counter autoubiquitination screen was utilised. Upon counter-activity analysis, only with NSC-217913 did UbcH7 retain more than 90% activity and so this was selected as the sole validated hit compound from our inhibition screen (SI Table S6).

[3] = target: T3, WWP1-L34H (Homo sapiens, UniProt Q9H0M0); experiment: WWP1 ELISA autoubiquitination assay; conditions: for relative autoubiquitination activity, single-shot: 500 µM compound, normalised to 0% and 100% controls; for relative autoubiquitination activity, single-shot / relative activity, single-shot autoubiquitination: 1% DMSO; for IC50: sample used directly from the NCI library, dose range 500 µM - 5 nM; for relative activity, single-shot autoubiquitination: 1 mM compound, hit threshold less than 50% relative activity
T3 construct: WWP1- 2,3-linker-WW3-WW4-HECT (WWP1-L34H); made in house; host or cells: E. coli BL21-CodonPlus RP (plasmid pET32a-WWP1-L34H, gifted by Dr Wenyu Wen)
Method: as §1, §2, §3

[4] = sample used directly from the NCI library, dose range 500 µM - 5 nM
[5] = synthesised compound, WWP2-FL, 1% DMSO, 95% CI range in brackets

T1 sequence (O00308 whole entry): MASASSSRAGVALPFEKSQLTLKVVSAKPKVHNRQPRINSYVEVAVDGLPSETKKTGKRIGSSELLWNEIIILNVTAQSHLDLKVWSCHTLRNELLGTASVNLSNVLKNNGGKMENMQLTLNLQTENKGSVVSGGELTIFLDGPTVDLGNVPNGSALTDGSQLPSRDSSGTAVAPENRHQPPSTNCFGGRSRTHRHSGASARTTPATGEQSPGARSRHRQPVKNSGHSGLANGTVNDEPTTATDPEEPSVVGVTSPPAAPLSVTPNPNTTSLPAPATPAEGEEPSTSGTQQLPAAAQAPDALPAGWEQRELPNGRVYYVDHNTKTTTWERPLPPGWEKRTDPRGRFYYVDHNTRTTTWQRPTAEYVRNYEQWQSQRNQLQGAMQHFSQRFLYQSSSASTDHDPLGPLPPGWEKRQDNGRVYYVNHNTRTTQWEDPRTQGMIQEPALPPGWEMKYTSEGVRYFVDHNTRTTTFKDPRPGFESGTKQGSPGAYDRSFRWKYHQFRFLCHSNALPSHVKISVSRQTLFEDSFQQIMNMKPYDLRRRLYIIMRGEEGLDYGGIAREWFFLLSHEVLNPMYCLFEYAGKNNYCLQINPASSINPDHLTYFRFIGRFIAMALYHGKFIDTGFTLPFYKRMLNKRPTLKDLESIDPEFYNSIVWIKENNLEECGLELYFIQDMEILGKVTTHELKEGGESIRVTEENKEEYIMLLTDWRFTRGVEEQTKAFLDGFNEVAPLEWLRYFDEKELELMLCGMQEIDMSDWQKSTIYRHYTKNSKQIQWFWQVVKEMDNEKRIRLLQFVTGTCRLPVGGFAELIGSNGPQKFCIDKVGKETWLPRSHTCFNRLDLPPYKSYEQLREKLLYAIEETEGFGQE
T2 sequence (P68036 whole entry): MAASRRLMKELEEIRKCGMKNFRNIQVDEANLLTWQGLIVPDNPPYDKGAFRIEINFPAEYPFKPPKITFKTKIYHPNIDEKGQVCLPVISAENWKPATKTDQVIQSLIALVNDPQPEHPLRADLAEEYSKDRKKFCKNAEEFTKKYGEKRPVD

IC50 [1, 4]: 256 µM
UbcH7 Activity [2]: 7.5 ± 0.6%
relative autoubiquitination activity, single-shot [3]: less than 50%
IC50 [3]: < 100 µM and 92.4 µM
Compound: CCc1oc2ccccc2c1C(=O)c1cc(Br)c(O)c(Br)c1 [NSC-85433]

relative autoubiquitination activity, single-shot [3]: less than 50%
Compound: NC(=Nc1nc(-c2ccccn2)cc2ccccc12)c1ccccn1 [NSC-637578]

IC50 [1, 4]: 49.1 µM
UbcH7 Activity [2]: 62.5 ± 2.4%
relative autoubiquitination activity, single-shot [3]: less than 50%
Compound: COc1cc(-c2ccc(Nc3ccccc3C(=O)O)c(OC)c2)ccc1Nc1ccccc1C(=O)O [NSC-73735]

relative autoubiquitination activity, single-shot ([1]; 1% DMSO): less than 50%
IC50 [1, 4]: 513 µM
Compound: O=[N+]([O-])c1cc([N+](=O)[O-])c2cccnc2c1O [NSC-57103]

relative autoubiquitination activity, single-shot [3]: less than 50%
IC50 [3]: 397 µM
Compound: O=C(/C=C/c1ccccc1Cl)c1ccc(O)cc1 [NSC-13151]

Continued, compound first:

Compound: Nc1nc2nc(Br)cnc2s1 [Compound 26, 5-bromothiazolo[4,5-b]pyrazine-2-amine]
relative activity, single-shot autoubiquitination ([1]; 1% DMSO): some decrease in activity

Compound: COC(=O)[C@H](COC(C)(C)C)NC(=O)CSc1nc2nc(Cl)c(Cl)nc2[nH]1 [Compound 14, Methyl 3-(tert-butoxy)-2(S)-[2-({5,6-dichloro-1H-imidazo[4,5-b]pyrazine-2-yl}sulfanyl)acetamido]propionate]
relative activity, single-shot autoubiquitination ([1]; 1% DMSO): rather small decrease in relative activity
relative activity, single-shot autoubiquitination [3]: rather small decrease in relative activity

Compound: CCCC(C)Sc1nc2nc(Cl)c(Cl)nc2[nH]1 (centres unmarked) [Compound 8, 2-({5,6-dichloro-1H-imidazo[4,5-b]pyrazine-2-yl}sulfanyl)pentane]
relative activity, single-shot autoubiquitination ([1]; 1% DMSO): rather small decrease in relative activity
relative activity, single-shot autoubiquitination [3]: rather small decrease in relative activity

Compound: CCOC(=O)Cc1cn2cc(Cl)ncc2n1 [Compound 2, Ethyl 6-chloroimidazo[1,2-a]pyrazine-2-acetate]
relative activity, single-shot autoubiquitination ([1]; 1% DMSO): some decrease in activity

Compound: Ethyl 2-[({imidazo[4,5-c]pyridine}sulfan-2-yl-5N-(ethyl-2-acetate))]acetate [Compound 23]
relative activity, single-shot autoubiquitination [3]: reducing relative activity

Compound: CCOC(=O)CSc1nc2nccnc2[nH]1 [Compound 20, Ethyl 2-({1H-imidazo[4,5-b]pyrazine}sulfanyl-2-yl)acetate]
relative activity, single-shot autoubiquitination [3]: reducing relative activity

Compound: O=C(O)CCSc1nc2nc(Cl)c(Cl)nc2[nH]1 [Compound 13, 3-({5,6-Dichloro-1H-imidazo[4,5-b]pyrazine-2-yl}sulfanyl)propionic acid]
IC50 [1, 5]: 603 µM
relative activity, single-shot autoubiquitination [3]: failed to reach the activity threshold

Compound: CCCC(=O)CSc1nc2nc(Cl)c(Cl)nc2[nH]1 [Compound 10]
relative activity, single-shot autoubiquitination ([1]; 1% DMSO): rather small decrease in relative activity
relative activity, single-shot autoubiquitination [3]: rather small decrease in relative activity

Compound: O=C(O)CNC(=O)CSc1nc2nc(Cl)c(Cl)nc2[nH]1 [Compound 16, 2-({5,6-dichloro-1H-imidazo[4,5-b]pyrazine-2-yl}sulfanyl)acetamidoacetic acid]
relative activity, single-shot autoubiquitination ([1]; 1% DMSO): better single-shot data
relative activity, single-shot autoubiquitination [3]: better single-shot data

Compound: O=C(CSc1nc2nc(Cl)c(Cl)nc2[nH]1)N[C@@H](CO)C(=O)O [Compound 17, 3-hydroxy-2(S)-[({5,6-dichloro-1H-imidazo[4,5-b]pyrazine-2-yl}sulfanyl)acetamido]propanoic acid]
UbcH7 Activity [2]: 88.8 ± 0.7%

Compound: CCOC(=O)CSc1nc2cncnc2[nH]1 [Compound 21, Ethyl 2-({9H-imidazo[4,5-d]pyrimidine}sulfan-8-yl)acetate]
relative activity, single-shot autoubiquitination [3]: reducing relative activity

Compound: Cc1ccc(C=C2C(Cl)=C(Cl)C(Cl)=C2Cl)cc1 [NSC-26112]
relative autoubiquitination activity, single-shot ([1]; 1% DMSO): less than 50%

Compound: CCOC(=O)CNC(=O)CSc1nc2nc(Cl)c(Cl)nc2[nH]1 [Compound 12, Ethyl 2-({5,6-dichloro-1H-imidazo[4,5-b]pyrazine-2-yl}sulfanyl)acetamidoacetate]
relative activity, single-shot autoubiquitination ([1]; 1% DMSO): better single-shot data
relative activity, single-shot autoubiquitination [3]: better single-shot data

Compound: N#CCSc1nc2nc(Cl)c(Cl)nc2[nH]1 [Compound 7, 2-({5,6-Dichloro-1H-imidazo[4,5-b]pyrazine-2-yl}sulfanyl)acetonitrile]
IC50 [1, 5]: 856 µM
WWP2 IC50 [1, 5]: only limited inhibition
UbcH7 Activity [2]: 94.2 ± 0.8%

Compound: O=C(CSc1nc2nc(Cl)c(Cl)nc2[nH]1)N1CCOCC1 [Compound 9, 2-({5,6-dichloro-1H-imidazo[4,5-b]pyrazine-2-yl}sulfanyl)acetylmorpholine]
IC50 [1, 5]: 622 µM
relative activity, single-shot autoubiquitination [3]: failed to reach the activity threshold

Compound: CCOC(=O)Cc1cn2cc(Cl)nc(Cl)c2n1 [Compound 4, Ethyl 6,8-Dichloroimidazo[1,2-a]pyrazine-2-acetate]
relative activity, single-shot autoubiquitination ([1]; 1% DMSO): some decrease in activity

Compound: CCOC(=O)CSc1nc2nc(Cl)cnc2[nH]1 [Compound 5, Ethyl 2-({5-chloro-1H-imidazo[4,5-b]pyrazine-2-yl}sulfanyl)acetate]
relative activity, single-shot autoubiquitination ([1]; 1% DMSO): some decrease in activity
